Assay results from patent US12331041B2, “GLP-1 receptor agonists and uses thereof” (Pfizer Inc., priority 2018, dated 2025).
Where a name gives a salt, the structure may show the parent alone.

Key:
human GLP-1R [1] = molecular target: T1, human GLP-1R (Homo sapiens, UniProt P43220, G168S); experiment: CHO GLP-1R Clone H6 - Assay 1 (HTRF cAMP agonist assay); assay type: cell-based; conditions: for EC50: CHO Clone H6, high GLP-1R density, cAMP, geometric mean; for Emax / Assay 1 Emax (%): CHO Clone H6, relative to saturating full agonist GLP-1 7-36 (1 μM), arithmetic mean
T1 construct: expressed in transfected cells
T1 sequence (P43220 24-463 G168S): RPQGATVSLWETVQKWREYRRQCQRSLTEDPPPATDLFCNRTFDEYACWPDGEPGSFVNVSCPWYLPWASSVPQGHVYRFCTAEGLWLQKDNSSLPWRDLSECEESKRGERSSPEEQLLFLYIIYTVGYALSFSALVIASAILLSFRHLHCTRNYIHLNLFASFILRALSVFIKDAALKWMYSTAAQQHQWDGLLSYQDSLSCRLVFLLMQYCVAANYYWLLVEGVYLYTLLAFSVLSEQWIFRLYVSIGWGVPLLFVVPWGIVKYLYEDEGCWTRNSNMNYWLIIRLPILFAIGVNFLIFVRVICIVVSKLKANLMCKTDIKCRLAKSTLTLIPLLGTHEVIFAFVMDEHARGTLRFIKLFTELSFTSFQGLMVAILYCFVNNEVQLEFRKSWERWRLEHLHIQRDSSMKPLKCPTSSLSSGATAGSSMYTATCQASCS
Protocol: GLP-1R-mediated agonist activity was determined with a cell-based functional assay utilizing an HTRF (Homogeneous Time-Resolved Fluorescence) cAMP detection kit (cAMP HI Range Assay Kit; CisBio cat #62AM6PEJ) that measures cAMP levels in the cell. The method is a competitive immunoassay between native cAMP produced by the cells and exogenous cAMP labeled with the dye d2, The tracer binding is visualized by a mAb anti-cAMP labeled with Cryptate. The specific signal (i.e. energy transfer) is inversely proportional to the concentration of cAMP in either standard or experimental sample.
The human GLP-1R coding sequence (NCBI Reference Sequence NP_002053.3, including naturally-occurring variant Gly168Ser) was subcloned into pcDNA3 (Invitrogen) and a cell line stably expressing the receptor was isolated (designated Clone H6).
(§1) A 1 mL sample of the cell suspension in growth media was counted on a Becton Dickinson ViCell to determine cell viability and cell count per mL. The remaining cell suspension was then adjusted with growth media to deliver 2000 viable cells per well using a Matrix Combi Multidrop reagent dispenser, and the cells were dispensed into a white 384 well tissue culture treated assay plate (Corning 3570). The assay plate was then incubated for 48 hours at 37° C. in a humidified environment in 5% carbon dioxide.
Varying concentrations of each compound to be tested (in DMSO) were diluted in assay buffer (HBSS with Calcium/Magnesium (Lonza/BioWhittaker cat #10-527F)/0.1% BSA (Sigma Aldrich cat #A7409-1L)/20 mM HEPES (Lonza/BioWhittaker cat #17-737E) containing 100 μM 3-isobutyl-1-methylxanthin (IBMX; Sigma cat #15879). The final DMSO concentration is 1%.
After 48 hours, the growth media was removed from the assay plate wells, and the cells were treated with 20 μL of the serially diluted compound in assay buffer for 30 minutes at 37° C. in a humidified environment in 5% carbon dioxide. Following the 30 minute incubation, 10 μL of labeled d2 cAMP and 10 μL of anti-cAMP antibody (both diluted 1:20 in cell lysis buffer; as described in the manufacturer's assay protocol) were added to each well of the assay plate. The plates were then incubated at room temperature and after 60 minutes, changes in the HTRF signal were read with an Envision 2104 multi-label plate reader using excitation of 330 nm and emissions of 615 and 665 nm. Raw data were converted to nM cAMP by interpolation from a cAMP standard curve (as described in the manufacturer's assay protocol) and the percent effect was determined relative to a saturating concentration of the full agonist GLP-17-36 (1 μM) included on each plate. EC50 determinations were made from agonist dose-response curves analyzed with a curve fitting program using a 4-parameter logistic dose response equation.

human GLP-1R [2] = molecular target: T2, human GLP-1R (Homo sapiens, UniProt P43220, L260F); experiment: CHO GLP-1R Clone C6 - Assay 2 (HTRF cAMP agonist assay); assay type: cell-based; conditions: for EC50: CHO clone C6, low GLP-1R density, cAMP, geometric mean; for Emax / Assay 2 Emax (%): CHO clone C6, relative to saturating full agonist GLP-1 (1 μM), arithmetic mean
T2 construct: expressed in transfected cells; host or cells: CHO Flp-In T-REx, clonal line C6 (pcDNA5-FRT-TO)
T2 sequence (P43220 24-463 L260F): as the sequence (P43220 24-463 G168S) above, with S145G, L237F counted along it
Protocol: GLP-1R-mediated agonist activity was determined with a cell-based functional assay utilizing an HTRF (Homogeneous Time-Resolved Fluorescence) cAMP detection kit (cAMP HI Range Assay Kit; Cis Bio cat #62AM6PEJ) that measures cAMP levels in the cell. The method is a competitive immunoassay between native cAMP produced by the cells and exogenous cAMP labeled with the dye d2. The tracer binding is visualized by a mAb anti-cAMP labeled with Cryptate. The specific signal (i.e. energy transfer) is inversely proportional to the concentration of cAMP in either a standard or an experimental sample.
The human GLP-1R coding sequence (NCBI Reference Sequence NP_002053.3, including naturally-occurring variant Leu260Phe) was subcloned into pcDNA5-FRT-TO and a clonal CHO cell line stably expressing a low receptor density was isolated using the Flp-In™ T-Rex™ System, as described by the manufacturer (ThermoFisher).
as §1, with “deliver 1600” for “deliver 2000”, “48 h” for “48 hours”, “environment (95% O2,” for “environment in”, “5% CO2)” for “5% carbon dioxide.”
Varying concentrations of each compound to be tested (in DMSO) were diluted in assay buffer [HBSS with Calcium/Magnesium (Lonza/BioWhittaker cat #10-527F)/0.1% BSA (Sigma Aldrich cat #A7409-1L)/20 mM HEPES (Lonza/BioWhittaker cat #17-737E)] containing 100 μM 3-isobutyl-1-methylxanthin (IBMX; Sigma cat #15879). The final DMSO concentration in the compound/assay buffer mixture is 1%.
After 48 h, the growth media was removed from the assay plate wells, and the cells were treated with 20 μL of the serially diluted compound in assay buffer for 30 min at 37° C. in a humidified environment (95% O2, 5% CO2). Following the 30 min incubation, 10 μL of labeled d2 cAMP and 10 μL of anti-cAMP antibody (both diluted 1:20 in cell lysis buffer; as described in the manufacturer's assay protocol) were added to each well of the assay plate. The plates were then incubated at room temperature and after 60 minutes, changes in the HTRF signal were read with an Envision 2104 multi-label plate reader using excitation of 330 nm and emissions of 615 and 665 nm. Raw data were converted to nM cAMP by interpolation from a cAMP standard curve (as described in the manufacturer's assay protocol) and the percent effect was determined relative to a saturating concentration of the full agonist GLP-1 (1 μM) included on each plate. EC50 determinations were made from agonist dose response curves analyzed with a curve fitting program using a 4-parameter logistic dose response equation.

SMILES | EC50 (human GLP-1R [1]) [nM] | Emax (human GLP-1R [1]) [%] | EC50 (human GLP-1R [2]) [nM] | Emax (human GLP-1R [2]) [%] | Assay 1 Emax (%) (human GLP-1R [1]) | Assay 2 Emax (%) (human GLP-1R [2])
N#Cc1ccc(COc2cccc(N3CCC4(CC3)CC4c3nc4ccc(C(=O)O)cc4n3CC3CCO3)n2)c(F)c1 (single isomer, unassigned) [Example 35] | 330 | 85 | 13000 | 100 |  | 
N#Cc1ccc(COc2cccc(N3CCC4(CC3)CC4c3nc4ccc(C(=O)O)cc4n3CC3CCO3)n2)c(F)c1 (single isomer, unassigned) [Example 36] | 0.48 |  | 15 |  | 83 | 90
O=C(O)c1ccc2nc(C3CC34CCN(c3nc(OCc5ccc(Cl)cc5F)ncc3F)CC4)n(CCn3cncn3)c2c1 (single isomer, unassigned) [Example 41, 2-(6-{2-[(4-chloro-2-fluorobenzyl)oxy]-5-fluoropyrimidin-4-yl}-6-azaspiro[2.5]oct-1-yl)-1-[2-(1H-1,2,4-triazol-1-yl)ethyl]-1H-benzimidazole-6-carboxylic acid, trifluoroacetate salt, from P7] | 7.6 | 84 | 130 | 96 |  | 
COCCn1c(C2CC23CCN(c2cccc(OCc4ccc(Cl)cc4F)n2)CC3)nc2ncc(C(=O)O)cc21 (single isomer, unassigned) [Example 49, 2-(6-{6-[(4-chloro-2-fluorobenzyl)oxy]pyridin-2-yl}-6-azaspiro[2.5]oct-1-yl)-1-(2-methoxyethyl)-1H-imidazo[4,5-b]pyridine-6-carboxylic acid, ENT-2] | 18 |  | 290 | 87 | 75 | 
O=C(O)c1ccc2nc(C3CC34CCN(c3ncc(F)c(OCc5ccc(Cl)cc5F)n3)CC4)n(CC3CCO3)c2c1 (single isomer, unassigned) [Example 50] | 0.71 | 78 | 19 | 80 |  | 
O=C(O)c1ccc2nc(C3CC34CCN(c3ncc(F)c(OCc5ccc(Cl)cc5F)n3)CC4)n(CC3CCO3)c2c1 (single isomer, unassigned) [Example 51] | 470 |  | > 20000 |  | 71 | 
N#Cc1ccc(COc2nc(N3CCC4(CC3)CC4c3nc4ccc(C(=O)O)cc4n3CC3CCO3)ccc2F)c(F)c1 (single isomer, unassigned; ent-1) [Example 52] | 100 | 74 | 6400 | 100 |  | 
COCCn1c(C2CC23CCN(c2ccnc(OCc4ccc(Cl)cc4F)n2)CC3)nc2ccc(C(=O)O)cc21 (single isomer, unassigned; ent-2) [Example 47, Ammonium 2-(6-{2-[(4-chloro-2-fluorobenzyl)oxy]pyrimidin-4-yl}-6-azaspiro[2.5]oct-1-yl)-1-(2-methoxyethyl)-1H-benzimidazole-6-carboxylate, ENT-2] | 86 |  | 1700 | 100 | 92 | 
N#Cc1ccc(COc2nc(N3CCC4(CC3)CC4c3nc4ccc(C(=O)O)cc4n3CC3CCO3)ccc2F)c(F)c1 (single isomer, unassigned; ent-2) [Example 53] | 0.57 |  | 14 |  | 83 | 90
O=C(O)c1ccc2nc(CN3CCC(c4cccnc4OCc4ccc(Cl)cc4F)CC3)n(C[C@@H]3CCO3)c2c1 [Example 1, Ammonium 2-[(4-{2-[(4-chloro-2-fluorobenzyl)oxy]pyridin-3-yl}piperidin-1-yl)methyl]-1-[(2S)-oxetan-2-ylmethyl]-1H-benzimidazole-6-carboxylate] | 1 | 84 | 20 | 95 |  | 

Second part, the compound after the results:

EC50 (human GLP-1R [1]) [nM] | Emax (human GLP-1R [1]) [%] | EC50 (human GLP-1R [2]) [nM] | Emax (human GLP-1R [2]) [%] | Assay 1 Emax (%) (human GLP-1R [1]) | Assay 2 Emax (%) (human GLP-1R [2]) | SMILES
0.38 | 80 | 4.2 | 90 |  |  | N#Cc1ccc(COc2nc(N3CCC4(CC3)CC4c3nc4ccc(C(=O)O)cc4n3C[C@@H]3CCO3)c(F)cc2F)c(F)c1 (mixture of isomers) [Example 56, Ammonium 2-(6-{6-[(4-cyano-2-fluorobenzyl)oxy]-3,5-difluoropyridin-2-yl}-6-azaspiro[2.5]oct-1-yl)-1-[(2S)-oxetan-2-ylmethyl]-1H-benzimidazole-6-carboxylate]
63 | 76 | 3400 | 93 |  |  | N#Cc1ccc(COc2ccc(F)c(N3CCC4(CC3)CC4c3nc4ccc(C(=O)O)cc4n3CC3CCO3)n2)c(F)c1 (single isomer, unassigned) [Example 54]
0.33 |  | 5.8 |  | 83 | 82 | N#Cc1ccc(COc2ccc(F)c(N3CCC4(CC3)CC4c3nc4ccc(C(=O)O)cc4n3CC3CCO3)n2)c(F)c1 (single isomer, unassigned) [Example 55]
0.3 | 88 | 4.1 | 98 |  |  | N#Cc1ccc(COc2nc(N3CCC4(CC3)CC4c3nc4ccc(C(=O)O)cc4n3CC3CCO3)c(F)cc2F)c(F)c1 (single isomer, unassigned; ent-1) [Example 57]
> 12000 |  | > 20000 |  |  |  | O=C(O)c1ccc2nc(CC3CCC(c4cccc(OCc5ccc(Cl)cc5F)n4)CC3)n(C[C@@H]3CCO3)c2c1 (single isomer, unassigned; isomer 1) [Example 79]
12 | 98 | 160 | 100 |  |  | O=C(O)c1ccc2nc(CC3CCC(c4cccc(OCc5ccc(Cl)cc5F)n4)CC3)n(C[C@@H]3CCO3)c2c1 (single isomer, unassigned; isomer 2) [Example 80]
 |  | 10 | 97 |  |  | CCn1cncc1Cn1c(CN2CCC(c3ccnc(OCc4ccc(Cl)cc4F)n3)CC2)nc2ccc(C(=O)O)cc21 [Example 63, 2-[(4-{2-[(4-chloro-2-fluorobenzyl)oxy]pyrimidin-4-yl}piperidin-1-yl)methyl]-1-[(1-ethyl-1H-imidazol-5-yl)methyl]-1H-benzimidazole-6-carboxylic acid]
